From patent publication US20160287563A1, “Cysteine Prodrugs” (Promentis Pharmaceuticals, Inc., priority 2011, published 2016)

What was measured:
[1] = Tissue glutathione in the MAM neurodevelopmental model of schizophrenia; type: in vivo; conditions: rats in the MAM neurodevelopmental model (MAM 22 mg/kg IP on gestational day 17)
Description: (§1) This approach would have the added benefit of allowing assessing the impact of the compounds on cognitive changes that are thought to be relevant to schizophrenia. Thus, one would be able to test the hypothesis that the conditions that normalize glutathione are also conditions that are expected to improve cognitive performance.
Timed pregnant Sprauge-Dawley rats are given an acute injection of methylazoxymethanol (MAM; 22 mg/kg, IP) or vehicle on gestational day 17. Following vaginal birth, all mothers and offspring are left undisturbed until weaning on postnatal day 22.

[2] = tested on: MAM-treated rats; assay: Attentional Set Shifting in MAM-treated rats; type: in vivo
Text: as §1
Seven days prior to testing the animals will be food deprived to 85% of their free-feeding weight. Rats will be trained and tested on a four-arm cross maze (60×20×12 inches), constructed from Plexiglas with a removable arm to form a “T” configuration. On the first habituation day, the rat will be allowed to explore and consume up to 20 sugar pellets for 15 minutes. On the second day, the maze will be baited with 12 pellets for 15 minutes. On subsequent days, only one pellet will be placed at the end of each arm. This procedure will be continued daily until the rat consumes 16 sugar pellets in 15 minutes. Once achieved, the turn bias will be determined by forming a “T” configuration with the removable arm. A black-and-white piece of laminated paper for a visual cue will be placed on the floor in one of the arms. One pellet will be placed in each food well of the “T” arms. The rat will then be placed in the stem arm and allowed to choose between the two arms. […]

[3] = tested on: cultured cells; assay: Glutathione levels in cultured cells exposed to oxidative stress agents; type: cell-based; conditions: iron 0-120 min exposure to 0-100 microM; ethacrynic acid 0-30 min exposure to 0-10 microM
Description: First, the experiment described in part 1A is repeated, except the harvested tissue is exposed to agents that induce oxidative stress which would prompt the cells to use/increase the synthesis of glutathione (the details are provided below).

For `C[N+]([O-])=NCO` [MAM, methylazoxymethanol], the “tissue levels of glutathione” value [1] was “modest reduction in tissue levels of glutathione”.

With `CC(=O)N[C@@H](CS)C(=O)O` [NAC, N-acetyl cysteine] the “Attentional Set Shifting deficit” value [2] was “can be restored”.

For `C=C(CC)C(=O)c1ccc(OCC(=O)O)c(Cl)c1Cl` [ethacrynic acid], the “tissue levels of glutathione in cultured cells” value [3] was “decrease tissue levels of glutathione”.

With `[Fe]` [iron] the “tissue levels of glutathione in cultured cells” value [3] was “decrease tissue levels of glutathione”.
